# Measured values: patent publication US20250281453A1, “COMBINATION THERAPIES COMPRISING QTX125” (QUIMATRYX, S.L., priority 2022, published 2025)
# How the values were obtained:
# Type in all cases: cell-based
# [1] = test system: HCT-116 colonic cancer cells; test: Cell viability, ALAMAR blue assay, monotherapy
# Procedure: (§1) In brief, HCT-116, MiaPaCa-2 and Panc-1 cells were thawed in high glucose DMEM (Sigma D5796) with 10% heat-inactivated Foetal Calf Serum (FCS) (PAA, A15-101)). Hep-G2 and SK-Hep1 cells were thawed in Minimum Essential Media (MEM) (Sigma M2279) with 1% non-essential amino acids (Sigma M7145), 2 mM Glutamine (Sigma G7513) and 10% FCS. SK-OV-3 cells were thawed in McCoy's 5A medium (Sigma, M8403) with 15% FCS. All cells were passaged by washing once in cation-free dPBS (Sigma, D1408), and incubated for 3 minutes with trypsin ([0.5 μg/ml]/EDTA [0.2 μg/ml] (Sigma, T4174) in dPBS). Passage was completed at 37° C., and cells were transferred to the appropriate media. Prior to seeding at defined cell density, cells were recovered in medium, centrifuged and resuspended for counting.
# (§2) To prepare cells for viability assays, cells were transferred into 96 well tissue culture plates (Cultek), and resuspended in 100 µL at the following densities: 10,000 cells/well (Hep-G2 and MiaPaCa-2), 5000 cells/well (Panc-1 and SK-OV-3) or 3000 cells/well (HCT-116). Following 24 hours of incubation, media was removed and replaced with 100 µL media spiked with QTX125 and the test chemotherapeutic agents. Stock solutions for the agents used in this study are shown below in Table 1. Cells were incubated for a further 72 hours before cell viability was assessed using both ALAMAR® and hexosaminidase assays.
# (§3) For the ALAMAR® blue assay, media containing QTX125 and the test chemotherapeutic agents was removed, and cells were stained using ALAMAR® blue (BioSource DAL 1100) for 4 hours at 37° C., following the manufacturer's instructions. Relative fluorescent intensity was measured using a Cytofluor® plate reader (Millipore) at 535/590 nm (Excitation/emission). This measure directly correlates with the number of viable cells present in each well.
# (§4) A number of appropriate control samples were included. First, absorbance values measured in reagent ‘blank’ wells (containing cell culture medium and colorimetric agent only) were subtracted from ‘test’ sample-containing wells. ‘Blank’ absorbance values were routinely between 5 and 10% of the values recorded in test wells. Absorbance values recorded in test wells were then compared against wells containing (i) cells stimulated with QTX125 only; (ii) cells stimulated with sorafenib, gemcitabine or bortezomib only and/or (iii) unstimulated cells, as appropriate.
# (§5) Control values were normalised to 100% and percentage (%) viability was calculated. Data were used to plot log dose-response curves using a sigmoid dose-response (variable slope) equation. EC50 values were obtained using Equation 1, where ‘X’ is the logarithmic concentration; ‘Y’ is the response output and it is assumed that Y starts at bottom of the graph and reaches the top with an overall sigmoid shape.
# (§6) Prior to assessing the oncolytic efficacy of QTX125-containing combination therapies, the oncolytic effect of each test agent was assessed in isolation. Dose-response curves were produced by serial dilution (1:1), thereby allowing monotherapy EC50 values to be calculated.
# (§7) Chemotherapeutic agents were added to wells at a starting concentration of 100 μM. However, it was quickly determined that it was not possible to use this range for all chemotherapeutic agents tested. An optimization study was therefore completed to identify suitable maximum (‘high’) doses for each agent and in each individual cell line.
# [2] = test system: Hep-G2 hepatic cancer cells; test: Cell viability, ALAMAR blue assay, monotherapy
# Procedure: as §1, §2, §3, §4, §5, §6, §7
# [3] = test system: MiaPaCa-2 pancreatic cancer cells; test: Cell viability, ALAMAR blue assay, monotherapy
# Procedure: as §1, §2, §3, §4, §5, §6, §7
# [4] = test system: Panc-1 pancreatic cancer cells; test: Cell viability, ALAMAR blue assay, monotherapy
# Procedure: as §1, §2, §3, §4, §5, §6, §7
# [5] = test system: SK-OV-3 ovarian cancer cells; test: Cell viability, ALAMAR blue assay, monotherapy
# Procedure: as §1, §2, §3, §4, §5, §6, §7
# [6] = test system: HCT-116 colonic cancer cells; test: Cell viability, hexosaminidase assay, monotherapy
# Procedure: as §1, §2
# (§8) For the hexosaminidase assay, media containing QTX125 and the test chemotherapeutic agents was removed, and cells were washed once with PBS. 60 μL of substrate solution (containing: 7.5 mM p-nitrophenol-N-acetyl-beta-D-glucosamide [Sigma N-9376], 0.1 M sodium citrate, pH 5.0 and 0.25% Triton X-100) was added to each well and cells were incubated at 37° C. for at least 1 hour. Incubating cells in this manner causes the substrate solution to become bright yellow, at which point 90 μL of developer solution (containing 50 mM Glycine pH 10.4 and 5 mM EDTA) was added to each well. Absorbance at 410 nm was recorded using a plate reader.
# as §4, §5, §6, §7
# [7] = test system: Hep-G2 hepatic cancer cells; test: Cell viability, hexosaminidase assay, monotherapy
# Procedure: as §1, §2, §8, §4, §5, §6, §7
# [8] = test system: MiaPaCa-2 pancreatic cancer cells; test: Cell viability, hexosaminidase assay, monotherapy
# Procedure: as §1, §2, §8, §4, §5, §6, §7
# [9] = test system: Panc-1 pancreatic cancer cells; test: Cell viability, hexosaminidase assay, monotherapy
# Procedure: as §1, §2, §8, §4, §5, §6, §7
# [10] = test system: SK-OV-3 ovarian cancer cells; test: Cell viability, hexosaminidase assay, monotherapy
# Procedure: as §1, §2, §8, §4, §5, §6, §7
# [11] = 72 hours of high-dose monotherapy (Table 2: QTX125 1, sorafenib 100, gemcitabine 10, bortezomib 1 μM)
# [12] = Homo sapiens, 72 h, read-out: EC50 dose of monotherapy
# [13] = 72 hours of high-dose monotherapy (Table 2: QTX125 5, sorafenib 100, gemcitabine 100, bortezomib 1 μM)
# [14] = Homo sapiens, HepG2, 72 h, read-out: EC50 dose of monotherapy
# [15] = 72 hours of high-dose monotherapy (Table 2: QTX125 100, sorafenib 100, gemcitabine 100, bortezomib 1 μM)
# [16] = 72 hours of high-dose monotherapy (Table 2: QTX125 10, sorafenib 100, gemcitabine 10, bortezomib 1 μM)
smiles,measurement,setting,value
"O=C(NO)c1ccc(CNC(=O)c2[nH]c(-c3ccc(O)cc3)cc2-c2ccoc2)cc1 [QTX125, 3-(3-Furyl)-N-{4-[(hydroxyamino)carbonyl]benzyl}-5-(4-hydroxyphenyl)-1 Hpyrrole-2-carboxamide]",percentage (%) cell viabilities,[1]; [11],0.0%
same,EC50,[1]; [12],0.33 µM
same,percentage (%) cell viabilities,[2]; [13],0.0%
same,EC50,[2]; [14],0.91 ± 0.2 µM
same,percentage (%) cell viabilities,[3]; [15],0.0%
same,EC50,"[3]; Homo sapiens, MIA PaCa-2, 72 h, 72 h, read-out: EC50 dose of monotherapy",1.79 ± 0.05 µM
same,percentage (%) cell viabilities,[4]; [15],0.0%
same,EC50,[4]; [12],1.4 ± 0.15 µM
same,percentage (%) cell viabilities,[5]; [16],0.0%
same,EC50,[5]; [12],3 ± 0.4 µM
same,percentage (%) cell viabilities,[6]; [11],7.3%
same,EC50,[6]; [12],0.43 µM
same,percentage (%) cell viabilities,[7]; [13],2.1%
same,EC50,[7]; [14],3.3 ± 0.4 µM
same,reduction of the population of viable cells,"[7]; high-dose monotherapy, 72 hours",~98%
same,percentage (%) cell viabilities,[8]; [15],7.3%
same,EC50,"[8]; Homo sapiens, MIA PaCa-2, 72 h, read-out: EC50 dose of monotherapy",1.5 ± 0.2 µM
same,percentage (%) cell viabilities,[9]; [15],3.9%
same,EC50,[9]; [12],3.6 ± 0.5 µM
same,percentage (%) cell viabilities,[10]; [16],5.0%
same,EC50,[10]; [12],3.6 ± 0.4 µM
